Laboratory results taken from patent publication US8093290B2, “Coolant solutions and compositions comprising the same” (Givaudan SA, priority 2002, dated 2012).

Tested on: oral cavity
Test: observed area of the oral cavity affected by the coolant effect
Conditions: in vivo

CC1CCC(C(C)C)C(OC(=O)C(C)O)C1 (stereo not shown) [Menthyl lactate, menthyl lactate]
area of the oral cavity targeted by the coolant effect: front/middle of the mouth
